The nature of data set [1]: Pharmacokinetic evaluation in mice, experimental operation B (C57BL/6N). The format is in vivo. The note with it: C57BL/6N mice. The source says: In this study, CD-1 or C57BL/6N male mice were selected as test animals, and LC/MS/MS method was used to quantify plasma concentrations of the test compound intravenously injected or intragastrically administered to mice at different time points, so as to evaluate the pharmacokinetic profile of the test drug in mice.
CD-1 mice (male, 20 to 35 g, 7 to 10 weeks old, Beijing Vital River) or C57BL/6N mice (male, 20 to 30 g, 7 to 10 weeks old, Beijing Vital River)
A clarified solution or suspension of the test compound was injected into C57BL/6N mice (overnight fasting) via the tail vein (vehicle: 5% DMSO/10% Solutol/85% H2O), or intragastrically administered into C57BL/6N mice (overnight fasting). For intravenous injection, […] of blood was collected via the cheek puncture at 0 h (pre-administration) and 0.083 h, 0.25 h, 0.5 h, 1 h, 2 h, 4 h, 6 h, 8 h, and 24 h after administration, and placed in an anticoagulant tube added with heparin sodium. The mixture was thoroughly vortexed and mixed, and centrifuged at 6000 g for 3 minutes at 2 to 8° C. For oral administration, blood was collected via the cheek puncture at 0 h (pre-administration) and 0.083 h, 0.25 h, 1 h, 2 h, 4 h, 6 h, 8 h, and 24 h after administration, and placed in an anticoagulant tube added with heparin sodium. The mixture was thoroughly vortexed and mixed, and centrifuged at 6000 g for 3 minutes at 2 to 8° C. Plasma concentrations were determined by LC-MS/MS method, and relevant pharmacokinetic parameters were calculated using Phoenix WinNonlin 8.2.0 pharmacokinetic software with non-compartmental model linear-log trapezoidal method.

For the next data set, the target named is T1, IRAK4 (Homo sapiens, UniProt Q9NWZ3).
T1 construct: expressed in transfected cells; host or cells: K562 IRAK4-HiBiT cells
T1 sequence (Q9NWZ3 1-460): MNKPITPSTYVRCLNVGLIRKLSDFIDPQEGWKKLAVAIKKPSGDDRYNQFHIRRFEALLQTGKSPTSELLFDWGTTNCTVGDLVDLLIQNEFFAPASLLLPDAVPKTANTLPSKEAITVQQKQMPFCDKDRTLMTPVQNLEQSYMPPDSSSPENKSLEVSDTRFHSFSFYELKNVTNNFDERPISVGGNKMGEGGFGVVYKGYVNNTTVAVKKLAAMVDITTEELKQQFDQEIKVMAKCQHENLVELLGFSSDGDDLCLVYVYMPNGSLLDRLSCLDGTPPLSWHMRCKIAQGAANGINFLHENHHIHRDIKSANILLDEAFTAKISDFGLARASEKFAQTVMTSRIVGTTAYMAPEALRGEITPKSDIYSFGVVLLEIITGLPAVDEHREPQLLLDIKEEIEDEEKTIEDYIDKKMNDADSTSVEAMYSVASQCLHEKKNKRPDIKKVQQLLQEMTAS
The data set can be described thus: Target protein degradation effect in K562 IRAK4-HiBiT cells (Nano-Glo HiBiT). It is filed as cell-based. To be noted: incubated 16 to 18 hours. As to the method:
Experimental purpose: In this experiment, the degradation effect of the test compound on the target protein IRAK4 in K562 IRAK4-HiBiT cells was detected.
• Cells: K562 IRAK4-HiBiT cells • Culture media: RPMI 1640+10% FBS+2 mM GlutaMax+1 mM sodium pyruvate+penicillin/streptomycin • Positive control: 1000 nM; negative control: 0.1% DMSO
• (1). The compound to be tested in powder form was dissolved in DMSO to 10 mM as a storage concentration, and 9 μL of the 10 mM compound to be tested was manually pipetted to column 1 and column 13 of an LDV plate using a pipette; • (2). 6 μL of DMSO was added to columns 2 to 12 and 14 to 24 using Multidrop Combi; [0688](3). the compound to be tested was 3-fold diluted (3 μL+6 μL) from columns 1 to 11 and 13 to 23 using Bravo; • (4). 25 nL of compound solution (columns 1 to 24 of the LDV plate) was transferred to an assay plate using Echo according to the plate layout; • (5). 25 nL of 1 mM positive control solution was transferred to the assay plate as a 100% degradation control (i.e., LC, HPE) and 25 nL of DMSO was transferred to the assay plate as a 0% control (i.e., HC, ZPE) using Echo.
• (1). The cell culture medium was discarded, and the cells were washed once with DPBS, digested with trypsin, and counted to prepare a cell suspension of […]; • (2). 25 µL/well of cell suspension was added to the assay plate containing the compound to be tested using Multidrop Combi at medium speed; • (3). the assay plate containing cells was returned to an incubator with 5% CO2 at 37° C. and incubated for 16 to 18 hours.
• (1). 25 µL/well of assay reagent (NanoGlo lysis buffer+substrate+LgBit protein) was added to the assay plate using Multidrop Combi at high speed, and the plate was shaken for 10 minutes; • (2). the plate was centrifuged at 2000 rpm for 1 minute to remove air bubbles; • (3). the plate was read on Envision using US Luminescence detection method.
The inhibition rate (IR) of the test compound was calculated using the following formula: IR (%)=(RLU vehicle control−RLU compound)/(RLU vehicle control−RLU positive control)×100%, and the vehicle control is the blank control. The inhibition rates of compounds at different concentrations were calculated in Excel, and then XLFit software was used to plot inhibition curves and calculate relevant parameters, including minimum inhibition rate, maximum inhibition rate, and DC50.
A general note: HiBiT is a short tag that completes a luciferase, so light tracks the accessible tagged protein.

Where [2] appears, read: Intragastric administration 10 mg/kg.

Where a name gives a salt, the structure may show the parent alone.

This is an account of results in patent publication US20250127905A1, “GLUTARIMIDE COMPOUND AND USE THEREOF” (MEDSHINE DISCOVERY INC., priority 2021, published 2025).

Broadly, the bioavailability is the share of a dose that reaches the circulation, judged against a reference dose that is usually intravenous. What is called clearance is the volume of plasma or blood freed of the substance per unit of time. Read a low clearance as a low capacity for elimination. The half-life is how long it takes for the measured level to halve. What is called DC50 is the concentration giving 50% degradation. In the case of `O=C1CCC(c2noc3c(NC(=O)CN4CCN(C[C@H]5CC[C@H](n6cc(NC(=O)c7cnn8ccc(N9C[C@H]%10C[C@@H]9CO%10)nc78)c(C(F)F)n6)CC5)CC4)cccc23)C(=O)N1` (stereo partly shown) [Hydrochloride of WX015], in data set [1] (setting [2]), the “Area under the drug-time curve (0-inf)” value is 2.51 µM·h, the Peak concentration turned out to be 0.4 µM and the “Time to peak concentration” value is listed as 1.33 h. For the same molecule, the “Area under the drug-time curve (0-inf)” value in data set [1] (Intravenous injection 2 mg/kg) was 1.45 µM·h. Also, the bioavailability in data set [1] (male, mouse, plasma, IV 2 mg/kg, PO 10 mg/kg, read-out: Bioavailability F) was 34.6%. In addition, in data set [1] (male, mouse, plasma, Intravenous injection 2 mg/kg), the clearance came out at 27.6 mL/min/kg. Further, in data set [1] (male, mouse, plasma, Intravenous injection 2 mg/kg, read-out: Apparent volume of distribution), the Vd worked out at 4.82 L/kg. The half-life in data set [1] (male, mouse, plasma, Intravenous injection 2 mg/kg, read-out: Elimination half-life (converted)) is 4.25 h. Also, on IRAK4, the DC50 is 4.12 nM and the Maximum inhibition rate was found to be 106.70%.
